Data taken from ChEMBL document CHEMBL1201862, “PubChem BioAssay data set” (2004).
Activity calls are given as the source filed them.

Experiments:
[1] = molecular target: Peroxisome proliferator-activated receptor gamma/Nuclear receptor coactivator 1 (Homo sapiens, UniProt P37231); test: (§1) TR-FRET dose response biochemical High Throughput Screening assay for agonists of the steroid receptor coactivator 1 (SRC-1) recruitment by the peroxisome proliferator-activated receptor gamma (PPAR gamma): non-selective agonists. [Related pubchem assays (depositor defined):AID1300, AID1808, AID504735, AID631]; assay type: protein assay
[2] = molecular target: Peroxisome proliferator-activated receptor gamma/Nuclear receptor coactivator 3 (Homo sapiens, UniProt P37231); test: as §1, with “3 (SRC-3)” for “1 (SRC-1)”, “assays: 1301 (Confirmation screen.), 1048 (Primary screen.)]” for “assays (depositor defined):AID1300, AID1808, AID504735, AID631]”; assay type: functional
[3] = molecular target: Peroxisome proliferator-activated receptor gamma/Nuclear receptor coactivator 2 (Homo sapiens, UniProt P37231); test: TR-FRET dose response biochemical High Throughput Screening assay for agonists of the steroid receptor coactivator 2 (SRC-2) recruitment by the peroxisome proliferator-activated receptor gamma (PPAR gamma): non-selective agonists. [Related pubchem assays: 1297, 1032 ]; assay type: functional
[4] = molecular target: Voltage-dependent T-type calcium channel subunit alpha-1H (Homo sapiens, UniProt O95180); assay type: functional;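 note: channel activity triggered by adding a high calcium stimulation buffer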
[5] = molecular target: T1, Corticotropin-releasing factor receptor 2/Corticotropin-releasing factor-binding protein (Homo sapiens, UniProt P24387+Q13324); test: Dose Response confirmation of uHTS hits for small molecule antagonists of the CRF-binding protein and CRF-R2 receptor complex.; assay type: functional; conditions: read-out: IC50_Mean
T1 sequence (Q13324 whole entry): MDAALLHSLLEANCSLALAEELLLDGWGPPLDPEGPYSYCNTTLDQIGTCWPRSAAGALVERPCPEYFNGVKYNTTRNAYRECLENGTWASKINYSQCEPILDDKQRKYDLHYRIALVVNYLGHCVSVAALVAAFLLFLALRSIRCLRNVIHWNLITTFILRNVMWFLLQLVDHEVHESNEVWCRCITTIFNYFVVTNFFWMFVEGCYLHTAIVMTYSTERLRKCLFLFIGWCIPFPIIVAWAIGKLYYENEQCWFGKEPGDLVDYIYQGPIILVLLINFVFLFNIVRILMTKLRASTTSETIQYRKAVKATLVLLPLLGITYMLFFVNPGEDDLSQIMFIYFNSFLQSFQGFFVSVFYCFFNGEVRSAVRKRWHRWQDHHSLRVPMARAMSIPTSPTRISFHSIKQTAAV
T1 sequence (P24387 whole entry): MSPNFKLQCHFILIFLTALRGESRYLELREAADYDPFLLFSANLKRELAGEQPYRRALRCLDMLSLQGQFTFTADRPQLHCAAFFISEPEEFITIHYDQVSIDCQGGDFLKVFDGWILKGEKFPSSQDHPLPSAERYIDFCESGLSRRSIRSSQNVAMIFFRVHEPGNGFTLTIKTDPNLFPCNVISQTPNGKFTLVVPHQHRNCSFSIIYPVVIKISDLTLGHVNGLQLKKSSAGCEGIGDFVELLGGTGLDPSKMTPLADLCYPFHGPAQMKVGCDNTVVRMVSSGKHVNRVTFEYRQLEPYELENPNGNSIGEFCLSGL

[6] = molecular target: T1, Corticotropin-releasing factor receptor 2/Corticotropin-releasing factor-binding protein; test: activators of CRF receptor 2 with binding protein – uHTS hits, confirmation (AID 602473); assay type: functional; conditions: read-out: EC50_Mean
[7] = molecular target: SUMO-activating enzyme (Homo sapiens, UniProt Q9UBT2); test: blockers of UBC9-mediated SUMO conjugation – biochemical, AlphaScreen, SUMOylation inhibitor project, confirmation (AID 2018); assay type: functional
[8] = molecular target: Glucose-6-phosphate 1-dehydrogenase (Homo sapiens, UniProt P11413); test: inhibition of Homo sapiens G6PD, dose series – biochemical, fluorescence, selectivity assay for P. falciparum G6PD inhibitor project, dose response (AID 504792); assay type: functional
[9] = microbe, parasite or virus in culture; assay type: functional; conditions: Mycobacterium tuberculosis
[10] = molecular target: T2, Coagulation factor XII (Homo sapiens, UniProt P00748); assay type: functional;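 note: activated factor XIIa alpha cleaving a fluorogenic AMC peptide substrate; inhibitor potency from loss of enzyme activity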
T2 sequence (P00748 whole entry): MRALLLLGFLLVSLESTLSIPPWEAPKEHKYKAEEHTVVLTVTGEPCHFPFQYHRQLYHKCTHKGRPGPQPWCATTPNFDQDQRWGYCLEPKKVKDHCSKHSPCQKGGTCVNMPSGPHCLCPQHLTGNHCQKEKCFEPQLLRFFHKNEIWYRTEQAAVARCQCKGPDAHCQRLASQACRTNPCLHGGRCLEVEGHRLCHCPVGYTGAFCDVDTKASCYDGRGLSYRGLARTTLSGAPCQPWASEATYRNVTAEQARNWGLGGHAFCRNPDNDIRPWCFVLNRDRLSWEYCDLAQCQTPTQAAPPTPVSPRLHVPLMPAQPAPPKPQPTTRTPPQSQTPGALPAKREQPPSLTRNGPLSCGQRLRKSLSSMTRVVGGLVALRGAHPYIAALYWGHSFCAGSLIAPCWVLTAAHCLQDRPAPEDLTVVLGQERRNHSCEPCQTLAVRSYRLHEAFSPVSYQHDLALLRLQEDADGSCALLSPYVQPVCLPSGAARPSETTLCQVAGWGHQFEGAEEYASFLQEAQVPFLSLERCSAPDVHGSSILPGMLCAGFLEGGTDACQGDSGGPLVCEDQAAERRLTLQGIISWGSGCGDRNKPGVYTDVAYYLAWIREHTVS

[11] = molecular target: T3, Aminopeptidase N (Plasmodium falciparum FcB1/Columbia, UniProt O96935); test: malaria alanyl aminopeptidase activity blockers – biochemical, fluorogenic H-Leu-NHMec substrate, 1536-well (AID 1445); parameters: species or system Plasmodium falciparum 3D7, 3D7
T3 sequence (O96935 whole entry): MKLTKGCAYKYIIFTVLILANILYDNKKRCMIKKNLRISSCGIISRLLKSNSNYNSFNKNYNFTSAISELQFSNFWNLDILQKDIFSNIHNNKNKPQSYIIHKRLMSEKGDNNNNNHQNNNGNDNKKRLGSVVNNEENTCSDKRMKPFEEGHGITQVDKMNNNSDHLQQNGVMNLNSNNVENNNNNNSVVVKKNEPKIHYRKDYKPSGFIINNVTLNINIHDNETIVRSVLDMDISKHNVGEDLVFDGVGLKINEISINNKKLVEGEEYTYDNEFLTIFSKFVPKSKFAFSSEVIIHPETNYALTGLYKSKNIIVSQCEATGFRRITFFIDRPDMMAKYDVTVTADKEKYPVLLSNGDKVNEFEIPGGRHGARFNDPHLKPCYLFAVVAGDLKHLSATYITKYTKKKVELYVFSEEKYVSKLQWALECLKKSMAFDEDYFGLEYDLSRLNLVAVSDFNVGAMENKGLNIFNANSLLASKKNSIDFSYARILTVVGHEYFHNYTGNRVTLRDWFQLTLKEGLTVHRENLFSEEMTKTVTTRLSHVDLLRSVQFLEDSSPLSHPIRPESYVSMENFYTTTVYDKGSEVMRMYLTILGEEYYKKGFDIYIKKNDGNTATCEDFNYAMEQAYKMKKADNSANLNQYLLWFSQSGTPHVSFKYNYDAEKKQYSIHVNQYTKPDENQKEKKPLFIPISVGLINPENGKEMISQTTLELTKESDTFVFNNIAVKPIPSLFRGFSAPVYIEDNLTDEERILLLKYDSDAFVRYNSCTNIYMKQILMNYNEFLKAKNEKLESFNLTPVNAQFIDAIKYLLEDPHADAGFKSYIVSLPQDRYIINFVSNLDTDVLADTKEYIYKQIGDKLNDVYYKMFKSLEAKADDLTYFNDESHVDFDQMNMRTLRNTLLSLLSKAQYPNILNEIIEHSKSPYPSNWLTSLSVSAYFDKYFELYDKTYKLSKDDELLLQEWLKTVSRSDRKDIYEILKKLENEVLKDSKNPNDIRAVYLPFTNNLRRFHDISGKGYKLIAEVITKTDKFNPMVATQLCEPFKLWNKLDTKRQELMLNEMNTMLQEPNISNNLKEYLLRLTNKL

[12] = Trypanosoma cruzi growth suppression in host cells – NIH3T3 host cells, beta-gal luminescence, confirmation (AID 2044); assay type: functional, cell-based;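 note: intracellular parasites grown in NIH/3T3 mouse fibroblasts as host cells; luminescent beta-galactosidase reporter signal from transgenic T. cruzi replicating inside host cells; inhibitors lower the luminescence signal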
[13] = NIH3T3 cell viability loss – ATP luminescence, mouse fibroblasts, counter-screen, dose response (AID 2010); assay type: functional, cell-based;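 note: cells exposed to compound for about 90 hours before reading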
[14] = THP-1 cell cytotoxicity, dose response, cytotoxicity control for non-replicating M. tuberculosis project (AID 489025); assay type: functional
[15] = HepG2 cell cytotoxicity, dose response, cytotoxicity control for non-replicating M. tuberculosis project (AID 489018); assay type: functional; conditions: Mycobacterium tuberculosis
[16] = cells; assay type: functional
[17] = molecular target: Cytochrome P450 2C19 (Homo sapiens, UniProt P33261); test: Cytochrome panel assay with activity outcomes. Panel member name: p450-cyp2c19 Compounds with AC50 equal or less than 10 uM are considered active; assay type: functional; conditions: read-out: AC50
[18] = HPDE-C7 pancreatic duct cell viability loss – fluorescence, HTS (AID 430); assay type: functional, cell-based; conditions: Homo sapiens
[19] = viability loss of HPDE-C7K cells – cell-based, fluorescence, HTS, primary screen (AID 431); assay type: functional; conditions: Homo sapiens
[20] = molecular target: Cytochrome P450 2D6 (Homo sapiens, UniProt P10635);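 note: CYP2D6 member of a cytochrome P450 panel assay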
[21] = molecular target: T4, Small ubiquitin-related modifier 1 (Homo sapiens, UniProt P63165); test: SUMO1 protein interaction blockers, potency – biochemical, fluorescence polarization, uHTS hits, dose response (AID 624382); assay type: functional; conditions: read-out: IC50_Mean
[22] = molecular target: T4, Small ubiquitin-related modifier 1; test: SUMO1 protein-protein binding blockers, potency – biochemical, FRET, dose response (AID 624383); assay type: functional; conditions: read-out: IC50_Mean
[23] = molecular target: Genome polyprotein (dengue virus type 2, UniProt P29990); test: flavivirus cap methylation enzyme inhibition – biochemical, confirmation dose response, primary screen (AID 588689); assay type: functional
[24] = molecular target: T5, Protein Tat (Human immunodeficiency virus type 1 group M subtype B (isolate HXB2)(HIV-1), UniProt P04608); assay type: functional;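 note: tat binding to TAR RNA read out by fluorescence polarization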
T5 sequence (P04608 whole entry): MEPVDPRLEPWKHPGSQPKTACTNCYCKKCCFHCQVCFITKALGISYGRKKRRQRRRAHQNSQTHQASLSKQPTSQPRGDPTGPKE

[25] = HIV-1 Vif–A3G interaction blockers – biochemical, TR-FRET, GST-Vif 1-94, biotin-A3G peptide, dose response retest, primary screen (AID 1117319); assay type: functional;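 note: TR-FRET signal of purified GST-Vif binding a biotinylated A3G peptide; inhibitors lower the FRET signal by blocking Vif and A3G binding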

Chain of Voltage-dependent T-type calcium channel subunit alpha-1H (O95180 whole entry): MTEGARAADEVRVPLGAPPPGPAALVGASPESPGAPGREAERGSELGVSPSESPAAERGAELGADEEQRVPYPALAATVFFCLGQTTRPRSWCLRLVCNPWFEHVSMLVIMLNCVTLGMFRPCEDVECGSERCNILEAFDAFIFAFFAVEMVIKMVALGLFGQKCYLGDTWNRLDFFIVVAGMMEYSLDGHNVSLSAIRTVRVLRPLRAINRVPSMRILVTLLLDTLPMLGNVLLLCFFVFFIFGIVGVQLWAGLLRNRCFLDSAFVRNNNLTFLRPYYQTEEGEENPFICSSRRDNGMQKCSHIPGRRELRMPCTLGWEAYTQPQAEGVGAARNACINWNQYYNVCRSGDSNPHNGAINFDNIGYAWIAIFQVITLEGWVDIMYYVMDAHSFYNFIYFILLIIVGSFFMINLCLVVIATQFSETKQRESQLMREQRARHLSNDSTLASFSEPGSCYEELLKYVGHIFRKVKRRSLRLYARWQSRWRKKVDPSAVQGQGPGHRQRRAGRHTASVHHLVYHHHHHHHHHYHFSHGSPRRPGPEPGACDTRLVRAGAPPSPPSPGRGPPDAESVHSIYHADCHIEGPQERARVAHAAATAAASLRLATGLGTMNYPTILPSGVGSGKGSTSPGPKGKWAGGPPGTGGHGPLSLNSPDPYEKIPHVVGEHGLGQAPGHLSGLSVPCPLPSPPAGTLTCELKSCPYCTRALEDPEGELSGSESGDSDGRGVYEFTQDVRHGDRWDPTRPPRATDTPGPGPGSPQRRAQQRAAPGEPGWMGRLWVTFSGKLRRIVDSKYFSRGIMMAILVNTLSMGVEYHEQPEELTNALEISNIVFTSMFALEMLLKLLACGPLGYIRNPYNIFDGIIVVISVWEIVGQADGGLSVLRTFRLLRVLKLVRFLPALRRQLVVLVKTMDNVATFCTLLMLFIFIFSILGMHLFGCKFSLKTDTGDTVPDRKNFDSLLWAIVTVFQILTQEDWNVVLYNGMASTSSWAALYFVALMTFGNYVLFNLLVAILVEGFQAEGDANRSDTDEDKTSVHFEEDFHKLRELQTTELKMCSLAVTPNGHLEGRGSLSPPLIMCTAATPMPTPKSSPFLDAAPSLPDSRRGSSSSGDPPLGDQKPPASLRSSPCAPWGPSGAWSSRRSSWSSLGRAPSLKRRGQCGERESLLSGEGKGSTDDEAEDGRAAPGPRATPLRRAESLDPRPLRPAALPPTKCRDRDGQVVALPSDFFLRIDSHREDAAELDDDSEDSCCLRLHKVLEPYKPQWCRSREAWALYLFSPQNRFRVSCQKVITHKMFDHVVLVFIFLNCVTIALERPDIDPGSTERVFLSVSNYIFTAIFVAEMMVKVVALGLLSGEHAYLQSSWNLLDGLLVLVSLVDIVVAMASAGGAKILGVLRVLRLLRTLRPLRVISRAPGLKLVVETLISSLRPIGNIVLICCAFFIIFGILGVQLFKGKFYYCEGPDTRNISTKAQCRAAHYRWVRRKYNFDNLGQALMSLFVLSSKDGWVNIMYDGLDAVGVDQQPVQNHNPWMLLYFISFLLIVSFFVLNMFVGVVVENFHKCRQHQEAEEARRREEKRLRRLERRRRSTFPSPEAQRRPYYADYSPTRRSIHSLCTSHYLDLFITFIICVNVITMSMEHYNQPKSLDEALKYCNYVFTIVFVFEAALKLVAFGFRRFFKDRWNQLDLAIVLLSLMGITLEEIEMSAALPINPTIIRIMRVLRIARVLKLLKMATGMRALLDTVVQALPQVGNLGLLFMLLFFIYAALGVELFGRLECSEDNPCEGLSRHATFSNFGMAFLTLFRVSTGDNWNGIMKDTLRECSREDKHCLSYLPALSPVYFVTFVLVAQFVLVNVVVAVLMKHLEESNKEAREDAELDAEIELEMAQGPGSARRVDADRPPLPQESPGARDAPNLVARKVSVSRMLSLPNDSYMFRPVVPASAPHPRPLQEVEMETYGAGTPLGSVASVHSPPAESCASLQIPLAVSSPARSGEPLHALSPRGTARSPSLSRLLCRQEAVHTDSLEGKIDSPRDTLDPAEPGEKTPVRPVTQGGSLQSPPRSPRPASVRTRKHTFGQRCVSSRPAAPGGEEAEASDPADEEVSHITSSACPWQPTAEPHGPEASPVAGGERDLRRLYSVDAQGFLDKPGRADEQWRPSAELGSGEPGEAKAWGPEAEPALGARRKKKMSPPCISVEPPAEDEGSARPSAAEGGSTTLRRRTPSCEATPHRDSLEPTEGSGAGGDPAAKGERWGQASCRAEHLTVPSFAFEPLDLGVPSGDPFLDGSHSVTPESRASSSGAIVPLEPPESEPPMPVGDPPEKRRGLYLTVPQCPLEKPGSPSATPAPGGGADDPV
Chain of Peroxisome proliferator-activated receptor gamma/Nuclear receptor coactivator 3 (P37231 whole entry): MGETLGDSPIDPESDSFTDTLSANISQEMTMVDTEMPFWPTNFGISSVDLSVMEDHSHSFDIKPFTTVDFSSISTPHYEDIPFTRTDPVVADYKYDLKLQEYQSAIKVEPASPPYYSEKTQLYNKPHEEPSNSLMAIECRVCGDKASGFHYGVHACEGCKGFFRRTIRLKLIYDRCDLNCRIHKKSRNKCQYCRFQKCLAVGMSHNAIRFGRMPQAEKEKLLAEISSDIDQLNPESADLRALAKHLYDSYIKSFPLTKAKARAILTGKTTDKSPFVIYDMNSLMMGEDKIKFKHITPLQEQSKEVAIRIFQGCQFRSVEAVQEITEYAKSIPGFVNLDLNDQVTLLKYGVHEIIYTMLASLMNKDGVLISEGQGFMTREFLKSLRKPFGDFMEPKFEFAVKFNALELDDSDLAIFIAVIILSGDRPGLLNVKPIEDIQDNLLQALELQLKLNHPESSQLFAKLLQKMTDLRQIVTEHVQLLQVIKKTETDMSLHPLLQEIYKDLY
Chain of Peroxisome proliferator-activated receptor gamma/Nuclear receptor coactivator 3 (Q9Y6Q9 whole entry, further chain): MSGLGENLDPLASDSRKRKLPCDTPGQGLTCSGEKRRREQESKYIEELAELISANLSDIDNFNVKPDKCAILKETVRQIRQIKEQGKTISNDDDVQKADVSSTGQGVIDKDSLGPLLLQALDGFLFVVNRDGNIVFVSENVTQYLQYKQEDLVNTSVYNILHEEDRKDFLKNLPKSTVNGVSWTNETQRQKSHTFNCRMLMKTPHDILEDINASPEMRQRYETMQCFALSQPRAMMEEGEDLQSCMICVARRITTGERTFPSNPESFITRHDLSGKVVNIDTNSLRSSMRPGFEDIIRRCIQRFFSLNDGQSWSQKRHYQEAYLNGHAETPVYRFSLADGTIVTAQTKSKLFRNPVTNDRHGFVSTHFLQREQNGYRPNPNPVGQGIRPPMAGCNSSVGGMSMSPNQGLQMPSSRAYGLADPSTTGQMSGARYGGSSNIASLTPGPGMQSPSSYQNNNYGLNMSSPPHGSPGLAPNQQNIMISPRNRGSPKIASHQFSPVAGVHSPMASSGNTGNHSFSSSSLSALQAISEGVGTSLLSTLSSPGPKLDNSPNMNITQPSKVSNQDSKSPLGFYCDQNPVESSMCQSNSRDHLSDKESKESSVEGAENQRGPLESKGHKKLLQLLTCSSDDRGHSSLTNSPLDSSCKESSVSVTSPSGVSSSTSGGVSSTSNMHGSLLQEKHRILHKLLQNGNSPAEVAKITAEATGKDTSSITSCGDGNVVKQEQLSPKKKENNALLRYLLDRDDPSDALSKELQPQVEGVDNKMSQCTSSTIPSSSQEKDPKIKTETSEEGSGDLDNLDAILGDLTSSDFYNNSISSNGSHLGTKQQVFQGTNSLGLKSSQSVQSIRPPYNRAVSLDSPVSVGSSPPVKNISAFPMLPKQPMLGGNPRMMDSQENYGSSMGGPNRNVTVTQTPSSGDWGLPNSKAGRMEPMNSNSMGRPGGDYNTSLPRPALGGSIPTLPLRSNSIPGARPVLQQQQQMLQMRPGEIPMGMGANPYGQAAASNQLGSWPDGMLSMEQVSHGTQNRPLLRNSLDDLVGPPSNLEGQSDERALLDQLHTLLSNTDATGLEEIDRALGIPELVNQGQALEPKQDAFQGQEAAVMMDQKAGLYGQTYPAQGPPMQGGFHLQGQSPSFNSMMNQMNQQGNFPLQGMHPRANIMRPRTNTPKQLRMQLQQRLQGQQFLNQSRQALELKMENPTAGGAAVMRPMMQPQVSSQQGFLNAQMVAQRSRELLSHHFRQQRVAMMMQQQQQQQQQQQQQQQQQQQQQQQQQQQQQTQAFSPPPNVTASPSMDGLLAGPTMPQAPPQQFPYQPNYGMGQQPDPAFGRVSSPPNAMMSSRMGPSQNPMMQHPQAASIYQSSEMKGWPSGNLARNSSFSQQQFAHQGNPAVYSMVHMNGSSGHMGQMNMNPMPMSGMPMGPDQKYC
T4 sequence (P63165 whole entry): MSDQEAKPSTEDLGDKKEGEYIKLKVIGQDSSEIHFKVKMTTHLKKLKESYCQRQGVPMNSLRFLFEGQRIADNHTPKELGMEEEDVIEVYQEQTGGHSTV
Chain of Cytochrome P450 2C19 (P33261 whole entry): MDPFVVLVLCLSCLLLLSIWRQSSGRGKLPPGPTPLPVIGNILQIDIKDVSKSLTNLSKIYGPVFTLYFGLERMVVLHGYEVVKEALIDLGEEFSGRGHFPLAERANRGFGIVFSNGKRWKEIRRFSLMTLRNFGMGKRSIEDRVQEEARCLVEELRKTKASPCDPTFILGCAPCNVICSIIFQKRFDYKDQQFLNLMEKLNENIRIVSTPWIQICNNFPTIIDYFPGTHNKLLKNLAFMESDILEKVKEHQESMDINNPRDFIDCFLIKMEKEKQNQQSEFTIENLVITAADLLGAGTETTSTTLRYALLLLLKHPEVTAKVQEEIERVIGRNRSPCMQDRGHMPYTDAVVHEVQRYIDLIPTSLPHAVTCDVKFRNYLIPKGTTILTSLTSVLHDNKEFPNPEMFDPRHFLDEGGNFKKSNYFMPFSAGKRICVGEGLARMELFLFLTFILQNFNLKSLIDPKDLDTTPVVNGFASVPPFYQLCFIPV

For `Cc1cccc(OCC(=O)Nc2nnc(-c3ccco3)s2)c1`, the EC50 [1] was > 26.5 µM (inactive), the EC50 [2] was > 79.4 µM (not active) and the EC50 [3] was > 26.5 µM (not active).

For `CC(C)(C)n1nnnc1C(c1ccc(Cl)cc1)N(Cc1cccnc1)Cc1ccco1` (configuration not stated), the EC50 [4] was 3.31 µM (active), the IC50 [5] was > 47.1 µM (inactive) and the EC50 [6] was > 53 µM (inactive).

In the case of `O=C(Nc1ccccc1O)c1cc(S(=O)(=O)N2CCOCC2)c(Cl)cc1Cl`, the IC50 [7] is reported as > 100 µM (inactive).

In the case of `COc1c2ccoc2c(OCC=C(C)C)c2oc(=O)ccc12` [PHELLOPTERIN], the IC50 [8] is reported as > 80 µM (inactive).

With `Cc1cc2nc(C3CCN(CC4COc5ccccc5O4)CC3)[nH]c2cc1C` (configuration not stated) the CC50 [9] was 30.9 µM (active) and the EC50 [4] was 4.9 µM (active).

For `COc1cc(OC)cc(C(=O)N2CCN(Cc3ccccc3C(F)(F)F)CC2)c1`, the IC50 [10] was > 50 µM (inactive).

For `NCCNC(=O)Cc1cccc(NC(=O)Cc2ccc(Nc3ncnc4c3ncn4[C@@H]3O[C@H](CO)[C@@H](O)[C@H]3O)cc2)c1`, the IC50 [11] was 53.7 µM (active).

For `COC(=O)c1sc(NC(=O)c2ccc([N+](=O)[O-])o2)c(C#N)c1C`, the EC50 [12] was 0.255 µM (active), the EC50 [13] was > 60 µM (not active) and the CC50 [14] was 18.8 µM (active). For the same molecule, the CC50 [15] was > 20 µM (active) and the IC50 [16] was 6.19 µM (active).

For `CCn1c(=O)cc(SCC(=O)NCc2ccco2)c2ccccc21`, the EC50 [1] was > 79.4 µM (inactive), the EC50 [2] was > 79.4 µM (not active) and the EC50 [3] was > 79.4 µM (not active).

In the case of `COc1cc(/C=N/NC(=O)c2cccnc2)ccc1OCC(=O)Nc1ccc(C)cc1`, the IC50 [11] is reported as 47.8 µM (active).

In the case of `CCNS(=O)(=O)c1ccc(CCC(=O)NCc2ccc(C)cc2)cc1`, the IC50 [11] is reported as 21.8 µM (active).

With `Cc1cccc(NC(=O)c2cc(N3C(=O)CCC3=O)ccc2Cl)n1` the IC50 [10] was > 50 µM (inactive) and the AC50 [17] was 28.2 µM (inconclusive).

For `Cc1nc2c(C(=O)NCc3ccc4c(c3)OCO4)cnn2c(O)c1Cc1ccccc1F`, the EC50 [18] was 9.68 µM (active), the EC50 [19] was 11.6 µM (active) and the EC50 [4] was 7.38 µM (active). The AC50 [20] was 25.1 µM (inconclusive).

With `O=C(CSc1ncnc2c1oc1ccccc12)Nc1cccc(Cl)c1` the EC50 [1] was 37.1 µM (inactive), the EC50 [2] was > 79.4 µM (not active) and the EC50 [3] was 23.7 µM (not active).

With `COc1ccc(-c2nnc(Nc3ccc(S(=O)(=O)Nc4nccs4)cc3)c3ccccc23)cc1` the EC50 [1] was 14.9 µM (inactive), the EC50 [2] was > 79.4 µM (not active) and the EC50 [3] was 9.18 µM (active). The IC50 [5] was > 47.1 µM (inactive), the EC50 [6] was > 53 µM (inactive) and the IC50 [21] was > 66.6 µM (inactive). For the same molecule, the IC50 [22] was 18.2 µM (active).

With `O=C(O)Cn1cc(C=C2C(=O)NC(=O)NC2=O)c2ccccc21` the IC50 [23] was > 100 µM (active).

For `c1cncc(-c2csc(NCc3ccco3)n2)c1`, the IC50 [10] was > 50 µM (inactive), the IC50 [24] was > 100 µM (active) and the IC50 [25] was > 100 µM (active).
